In patent US20180235949A1 (priority 2015, published 2018):
Read-outs that look alike come from different tables or passages of the source.

Tests used:
α2B (h) [1] = target: T1, α2B (h) (Homo sapiens, UniProt P18089); assay: α2B (h) (antagonist radioligand) binding; details: for nH: α2B (h) (antagonist radioligand)
T1 sequence (P18089 1-450): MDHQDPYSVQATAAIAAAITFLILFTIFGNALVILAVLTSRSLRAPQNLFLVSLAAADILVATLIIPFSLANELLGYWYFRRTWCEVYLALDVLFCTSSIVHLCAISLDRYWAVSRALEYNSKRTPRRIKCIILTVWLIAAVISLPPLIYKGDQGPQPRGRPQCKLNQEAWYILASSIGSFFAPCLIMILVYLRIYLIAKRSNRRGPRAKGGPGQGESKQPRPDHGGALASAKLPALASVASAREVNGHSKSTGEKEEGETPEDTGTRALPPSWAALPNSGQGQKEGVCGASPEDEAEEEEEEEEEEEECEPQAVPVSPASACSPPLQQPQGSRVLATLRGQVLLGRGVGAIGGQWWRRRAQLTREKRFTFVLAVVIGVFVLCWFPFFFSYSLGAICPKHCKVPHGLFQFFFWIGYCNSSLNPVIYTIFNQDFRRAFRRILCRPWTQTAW
Method: (§1) Representative compounds were tested to determine IC50 or EC50 in receptor functional assays. One or more of the procedures disclosed in the following references were used: Devedjian, J. C. et al., Eur. J. Pharmacol., 1994, 252, 43-49; Wang, J. B. et al., FEBS Lett., 1994, 338, 217-222; Simonin, F. et al., Mol. Pharmacol., 1994, 46, 1015-1021; Meng, F. et al., Proc. Natl. Acad. Sci. U.S.A., 1993, 90, 9954-9958; Avidor-Reiss, T. et al., FEBS Lett., 1995, 361, 70-74; Eason, M. G. et al., J. Biol. Chem., 1992, 267, 15795-15801; Law, P. Y. et al., Mol. Pharmacol., 1993, 43, 684-693. In each experiment and if applicable, the respective reference compound was tested concurrently with the test compounds. Compound binding was calculated as a % inhibition of the binding of a radioactively labeled ligand specific for each target. Cellular agonist effect was calculated as a % of control response to a known reference agonist for each target and cellular antagonist effect was calculated as a % inhibition of control reference agonist response for each target. Only the calculable IC50 and EC50 are reported below.

μ (MOP) (h) [2] = target: T2, μ (MOP) (h) (Homo sapiens, UniProt P35372); format: binding
μ (MOP) (h) [3] = target: T2, μ (MOP) (h); assay: μ (MOP) (h) (agonist effect) cellular functional assay; format: cell-based
Method: as §1

κ (KOP) = κ (KOP) (Rattus norvegicus, UniProt P34975); format: binding
CYP3A4 [4] = target: T3, CYP3A4 (Homo sapiens, UniProt P08684); details: 0.1-25 μM, human liver microsomes, substrate midazolam
Caco-2 cells = assay: Caco-2 permeability (bi-directional); details: 10 μM, pH gradient (pH 6.8/7.4)
[5] = Caco-2 permeability (bi-directional); details: human, Caco-2, pH 6.8
[6] = Bioavailability and stability evaluation; details: summary
[7] = Binding to plasma proteins; format: in vitro ADME; details: very small species differences
[8] = system: L-dopa-induced dyskinesia; assay: L-dopa-induced dyskinesia, comparison with amantadine; format: in vivo; details: model not specified
CYP2C9 = CYP2C9 (Homo sapiens, UniProt P11712); assay: CYP2C9 inhibition, human liver microsomes (tolbutamide); details: 0.1-25 μM
CYP2C19 = CYP2C19 (Homo sapiens, UniProt P33261); assay: CYP2C19 inhibition, human liver microsomes (mephenytoin); details: up to 25 micromolar
CYP3A4 [9] = details: human hepatocytes, 72 hr, any concentration tested
[10] = system: L-DOPA induced dyskinesias; assay: L-DOPA induced dyskinesias, Primate in vivo model
CYP2B6 [11] = details: human hepatocytes, 72 hr, at 100 μM
[12] = Toxicity in animal models; format: in vivo; details: many animal models, even at high concentrations
CYP2D6 = target: T4, CYP2D6 (Homo sapiens, UniProt P10635); assay: Time dependent inhibition of CYP2D6 (dextromethorphan; IC50 shift); format: in vitro ADME
T4 construct: from tissue
Method: Six test compound concentrations (0.1, 0.25, 1, 2.5, 10, 25 μM; final DMSO concentration 0.25%, final microsome concentration 0.5 mg/mL) were either pre-incubated for 30 min in the absence and presence of NADPH or undergo a 0 min pre-incubation. The probe substrate dextromethorphan (5 μM) and NADPH (1 mM) were then added (final DMSO concentration 0.3%) and the samples incubated for 5 min at 37° C. The selective time dependent CYP2D6 inhibitor, paroxetine, was screened alongside the test compounds as a positive control. The reactions were terminated by the addition of an aliquot of the incubation into methanol. The samples were centrifuged at 2500 rpm for 30 min at 4° C., and aliquots of the supernatant are diluted with formic acid in deionised water (final concentration 0.1%) containing internal standard prior to analysis of dextrorphan by LC-MS/MS.

CYP3A4 [13] = target: T3, CYP3A4; details: 0.1-25 μM, human liver microsomes, substrate testosterone
CYP2C8 = CYP2C8 (Homo sapiens, UniProt P10632); assay: CYP2C8 inhibition, human liver microsomes (paclitaxel); details: 0.1-25 μM
CYP2B6 [14] = target: CYP2B6 (Homo sapiens, UniProt P20813); details: 0.1-25 μM, human liver microsomes, bupropion
hERG potassium channel = hERG potassium channel (Homo sapiens, UniProt Q12809); assay: hERG channel inhibition, IonWorks automated patch clamp, CHO-hERG cells; details: up to 25 micromolar
[15] = system: L-DOPA induced dyskinesias; assay: L-DOPA induced dyskinesias, Rodent in vivo model
[16] = Brain tissue binding, equilibrium dialysis, mouse; details: 5 μM
MDR1-MDCK cells = assay: MDR1-MDCK permeability and P-gp substrate identification (bi-directional); format: in vitro ADME, canine; details: 10 μM, MDR1-MDCK, pH 7.4
Method: (§2) Cells were then incubated with HBSS at the desired pH in both apical and basolateral compartments for 40 min to stabilize physiological parameters.
(§3) The fluorescent integrity marker lucifer yellow was also included in the dosing solution. […] Analytical standards were prepared from test compound DMSO dilutions and transferred to buffer, maintaining a 1% v/v DMSO concentration.
(§4) For assessment of A-B permeability, HBSS was removed from the apical compartment and replaced with test compound dosing solution. […] For assessment of B-A permeability, HBSS was removed from the companion plate and replaced with test compound dosing solution. […] Test compound permeability was assessed in duplicate. Compounds of known permeability characteristics were run as controls on each assay plate. […] Cyprotex generic analytical conditions were used. The starting concentration (C0) was determined from the dosing solution and the experimental recovery calculated from C0 and both apical and basolateral compartment concentrations.
(§5) The integrity of the monolayer throughout the experiment was checked by monitoring lucifer yellow permeation using fluorimetric analysis.

P-glycoprotein (MDR1) = assay: as above; format: in vitro ADME, canine; details: dog, MDCK-MDR1, pH 7.4; minus inhibitor (no cyclosporin A)
Method: as §2, §3, §4, §5

CYP1A2 [17] = details: human hepatocytes, 72 hr, any concentration tested
CYP1A2 [18] = target: CYP1A2 (Homo sapiens, UniProt P05177); details: 0.1-25 μM, human liver microsomes, phenacetin
δ2 (DOP) (h) = δ2 (DOP) (h) (Homo sapiens, UniProt P41143); format: binding
α2B (h) [19] = target: T1, α2B (h); assay: α2B (h) (antagonist effect) cellular functional assay; format: cell-based
Method: as §1

μ (MOP) (h) [20] = target: T2, μ (MOP) (h); format: cell-based

T2 sequence (P35372 whole entry): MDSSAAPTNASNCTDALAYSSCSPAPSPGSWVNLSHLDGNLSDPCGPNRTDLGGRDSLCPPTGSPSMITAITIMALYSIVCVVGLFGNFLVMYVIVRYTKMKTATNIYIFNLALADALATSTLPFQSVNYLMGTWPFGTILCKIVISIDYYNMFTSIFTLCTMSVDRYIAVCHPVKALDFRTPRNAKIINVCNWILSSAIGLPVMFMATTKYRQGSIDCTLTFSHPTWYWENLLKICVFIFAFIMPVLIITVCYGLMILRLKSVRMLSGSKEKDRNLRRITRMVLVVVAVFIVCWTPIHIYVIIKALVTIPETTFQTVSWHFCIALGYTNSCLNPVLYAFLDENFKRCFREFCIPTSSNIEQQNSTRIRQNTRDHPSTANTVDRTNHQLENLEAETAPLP
Sequence of δ2 (DOP) (h) (P41143 whole entry): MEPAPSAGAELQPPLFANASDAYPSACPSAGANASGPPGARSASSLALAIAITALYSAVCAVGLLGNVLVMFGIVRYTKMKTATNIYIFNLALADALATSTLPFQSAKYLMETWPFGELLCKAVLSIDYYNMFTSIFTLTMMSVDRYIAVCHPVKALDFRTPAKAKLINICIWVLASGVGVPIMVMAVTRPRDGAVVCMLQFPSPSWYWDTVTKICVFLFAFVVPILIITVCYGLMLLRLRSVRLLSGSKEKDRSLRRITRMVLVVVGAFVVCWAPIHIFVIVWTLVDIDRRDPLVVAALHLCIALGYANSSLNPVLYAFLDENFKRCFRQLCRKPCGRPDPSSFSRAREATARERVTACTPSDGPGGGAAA
T4 sequence (P10635 whole entry): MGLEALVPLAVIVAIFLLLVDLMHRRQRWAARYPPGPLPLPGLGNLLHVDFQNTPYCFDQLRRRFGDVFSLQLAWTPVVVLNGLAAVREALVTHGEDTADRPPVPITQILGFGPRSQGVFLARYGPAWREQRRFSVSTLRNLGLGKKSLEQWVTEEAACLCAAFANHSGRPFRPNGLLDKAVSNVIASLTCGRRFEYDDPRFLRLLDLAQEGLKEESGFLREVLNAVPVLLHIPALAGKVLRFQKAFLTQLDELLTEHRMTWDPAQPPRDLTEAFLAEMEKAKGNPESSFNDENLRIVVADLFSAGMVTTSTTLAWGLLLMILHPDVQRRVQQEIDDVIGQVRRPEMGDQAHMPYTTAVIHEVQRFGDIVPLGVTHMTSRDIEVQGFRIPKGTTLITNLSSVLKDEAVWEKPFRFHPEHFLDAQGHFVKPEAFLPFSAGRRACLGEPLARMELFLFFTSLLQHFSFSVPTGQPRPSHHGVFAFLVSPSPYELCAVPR
Sequence of κ (KOP) (P34975 whole entry): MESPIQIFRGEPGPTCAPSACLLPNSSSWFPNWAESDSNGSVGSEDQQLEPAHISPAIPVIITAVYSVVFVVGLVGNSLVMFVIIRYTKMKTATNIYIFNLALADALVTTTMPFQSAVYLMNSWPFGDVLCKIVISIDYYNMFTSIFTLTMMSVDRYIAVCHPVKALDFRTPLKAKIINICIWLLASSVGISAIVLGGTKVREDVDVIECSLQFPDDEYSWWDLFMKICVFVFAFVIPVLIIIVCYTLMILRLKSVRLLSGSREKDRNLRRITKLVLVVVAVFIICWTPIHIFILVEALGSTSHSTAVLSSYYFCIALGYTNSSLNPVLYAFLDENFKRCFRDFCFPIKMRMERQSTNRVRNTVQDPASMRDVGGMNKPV
T3 sequence (P08684 whole entry): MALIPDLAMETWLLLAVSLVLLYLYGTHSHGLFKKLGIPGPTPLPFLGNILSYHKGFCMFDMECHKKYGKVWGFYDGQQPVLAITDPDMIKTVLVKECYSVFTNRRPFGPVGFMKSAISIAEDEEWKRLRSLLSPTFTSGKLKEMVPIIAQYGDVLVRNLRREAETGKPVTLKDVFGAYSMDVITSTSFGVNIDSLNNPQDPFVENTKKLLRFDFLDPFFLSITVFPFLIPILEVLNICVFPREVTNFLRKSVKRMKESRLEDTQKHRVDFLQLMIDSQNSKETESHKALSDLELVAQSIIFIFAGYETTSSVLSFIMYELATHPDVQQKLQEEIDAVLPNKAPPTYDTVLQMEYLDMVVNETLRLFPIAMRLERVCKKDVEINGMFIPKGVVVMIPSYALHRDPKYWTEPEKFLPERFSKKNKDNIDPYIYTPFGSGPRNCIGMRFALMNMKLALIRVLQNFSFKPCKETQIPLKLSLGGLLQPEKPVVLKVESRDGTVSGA
Sequence of CYP2C8 (P10632 whole entry): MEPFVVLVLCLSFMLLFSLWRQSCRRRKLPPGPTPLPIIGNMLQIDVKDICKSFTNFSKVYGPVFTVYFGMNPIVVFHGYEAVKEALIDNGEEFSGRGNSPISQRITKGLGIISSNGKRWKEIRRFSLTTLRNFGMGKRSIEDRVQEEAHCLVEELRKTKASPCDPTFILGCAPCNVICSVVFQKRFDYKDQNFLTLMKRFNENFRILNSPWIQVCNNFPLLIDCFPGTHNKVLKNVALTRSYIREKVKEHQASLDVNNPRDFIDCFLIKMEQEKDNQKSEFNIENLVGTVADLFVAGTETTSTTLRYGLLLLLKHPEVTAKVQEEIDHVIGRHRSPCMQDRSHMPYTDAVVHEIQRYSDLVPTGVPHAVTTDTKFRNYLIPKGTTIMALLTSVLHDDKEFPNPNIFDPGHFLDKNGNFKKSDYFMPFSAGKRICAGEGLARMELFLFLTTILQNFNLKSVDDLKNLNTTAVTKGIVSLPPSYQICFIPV
Sequence of CYP1A2 (Homo sapiens, UniProt P05177) (P05177 whole entry): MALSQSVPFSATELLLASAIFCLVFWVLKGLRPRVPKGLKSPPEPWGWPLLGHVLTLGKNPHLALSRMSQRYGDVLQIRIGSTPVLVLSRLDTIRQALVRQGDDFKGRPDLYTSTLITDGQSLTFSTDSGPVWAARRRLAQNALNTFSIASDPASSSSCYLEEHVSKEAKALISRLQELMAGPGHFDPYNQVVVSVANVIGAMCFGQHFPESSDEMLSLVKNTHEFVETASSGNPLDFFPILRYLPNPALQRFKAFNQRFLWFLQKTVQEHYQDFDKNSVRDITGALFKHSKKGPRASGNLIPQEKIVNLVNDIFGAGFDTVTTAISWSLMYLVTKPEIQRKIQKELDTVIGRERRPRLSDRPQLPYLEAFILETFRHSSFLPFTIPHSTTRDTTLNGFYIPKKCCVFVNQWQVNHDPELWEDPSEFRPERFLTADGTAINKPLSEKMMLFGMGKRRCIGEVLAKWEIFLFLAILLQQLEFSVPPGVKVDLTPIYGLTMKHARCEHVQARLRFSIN
Sequence of hERG potassium channel (Q12809 whole entry): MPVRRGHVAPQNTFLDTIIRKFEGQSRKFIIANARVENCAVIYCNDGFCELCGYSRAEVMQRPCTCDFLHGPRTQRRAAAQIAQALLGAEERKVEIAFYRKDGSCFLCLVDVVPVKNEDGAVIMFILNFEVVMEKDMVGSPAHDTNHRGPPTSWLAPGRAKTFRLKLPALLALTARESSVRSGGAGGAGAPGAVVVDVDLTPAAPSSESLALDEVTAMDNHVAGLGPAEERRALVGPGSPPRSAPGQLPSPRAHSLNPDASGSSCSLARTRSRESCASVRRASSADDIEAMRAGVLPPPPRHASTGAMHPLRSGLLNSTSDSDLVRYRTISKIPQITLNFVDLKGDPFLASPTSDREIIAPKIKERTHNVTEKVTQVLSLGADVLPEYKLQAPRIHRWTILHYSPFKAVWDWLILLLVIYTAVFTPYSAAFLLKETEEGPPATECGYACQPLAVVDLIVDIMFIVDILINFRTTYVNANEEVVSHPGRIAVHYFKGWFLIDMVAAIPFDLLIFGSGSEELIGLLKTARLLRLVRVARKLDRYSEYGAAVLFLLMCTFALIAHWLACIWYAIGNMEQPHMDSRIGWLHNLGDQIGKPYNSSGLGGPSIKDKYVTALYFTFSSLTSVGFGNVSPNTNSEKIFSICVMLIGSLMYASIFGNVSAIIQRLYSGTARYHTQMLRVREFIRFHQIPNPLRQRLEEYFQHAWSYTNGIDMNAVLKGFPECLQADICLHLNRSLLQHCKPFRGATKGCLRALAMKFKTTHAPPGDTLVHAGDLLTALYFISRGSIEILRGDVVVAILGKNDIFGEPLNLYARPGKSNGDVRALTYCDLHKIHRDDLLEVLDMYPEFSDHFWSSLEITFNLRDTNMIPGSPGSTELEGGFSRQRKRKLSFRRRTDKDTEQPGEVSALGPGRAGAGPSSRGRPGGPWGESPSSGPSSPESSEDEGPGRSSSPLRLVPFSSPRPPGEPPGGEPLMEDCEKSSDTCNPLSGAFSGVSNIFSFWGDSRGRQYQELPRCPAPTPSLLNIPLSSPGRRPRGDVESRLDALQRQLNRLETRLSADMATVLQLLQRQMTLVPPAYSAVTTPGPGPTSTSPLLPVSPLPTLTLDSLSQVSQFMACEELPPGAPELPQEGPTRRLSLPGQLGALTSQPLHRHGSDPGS
Sequence of CYP2C9 (P11712 whole entry): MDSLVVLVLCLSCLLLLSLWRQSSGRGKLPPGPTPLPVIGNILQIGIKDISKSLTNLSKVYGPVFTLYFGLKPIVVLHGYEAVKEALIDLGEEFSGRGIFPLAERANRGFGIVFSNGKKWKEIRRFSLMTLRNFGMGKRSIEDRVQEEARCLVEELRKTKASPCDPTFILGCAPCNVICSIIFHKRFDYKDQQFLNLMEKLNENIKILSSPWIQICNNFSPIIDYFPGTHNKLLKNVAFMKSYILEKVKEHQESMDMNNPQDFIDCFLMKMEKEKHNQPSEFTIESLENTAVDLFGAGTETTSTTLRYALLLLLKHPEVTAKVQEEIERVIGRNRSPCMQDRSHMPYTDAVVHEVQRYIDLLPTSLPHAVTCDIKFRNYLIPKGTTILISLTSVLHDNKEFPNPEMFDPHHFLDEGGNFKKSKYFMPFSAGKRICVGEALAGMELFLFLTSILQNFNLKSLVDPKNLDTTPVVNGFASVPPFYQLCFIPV

## CCC(=O)NC1CCN(CCC(=O)OC)CC1 [Methyl 3-(4-propionamidopiperidin-1-yl)propanoate]
α2B (h) [1]
  IC50: 260 µM
  Ki: 180 µM
  nH: 1
μ (MOP) (h) [2]
  nH: 0.5
μ (MOP) (h) [3]
  EC50: 290 µM
κ (KOP)
  nH: 0.8

## CCC(=O)NC1CCN(CCc2ccccc2)CC1 [HCV-3, N-(1-phenethylpiperidin-4-yl)propionamide]
CYP3A4 [4]
  CYP3A4 inhibition: No significant inhibition
Caco-2 cells
  permeability in the Caco-2 assay: highly permeable in both directions
[5]
  efflux ratio at 120 min, 10 µM: 2.7
[6]
  bioavailability: highly bioavailable
[7]
  binding to plasma proteins: weak, or no noticeable binding
[8]
  effectiveness compared with amantadine: significantly more effective than amantadine
CYP2C9
  CYP2C9 inhibition: No significant inhibition
CYP2C19
  CYP2C19 IC50: too weak to generate an IC50 value
CYP3A4 [9]
  CYP3A4 mRNA expression: didn't cause a statistically significant change
[10]
  inhibition of L-DOPA induced dyskinesias: significant inhibition
CYP2B6 [11]
  CYP2B6 mRNA expression: slight, yet statistically significant decrease
[12]
  toxicity: virtually no toxicity
CYP2D6; 25 μM, 30 minute plus NADPH incubation
  CYP2D6 inhibition: approximately 40%
CYP2D6; IC50 shift, 30 min pre-incubation with/without NADPH
  time-dependent CYP2D6 inhibition (conclusion): no evidence of time-dependent CYP2D6 inhibition
CYP2D6; human, microsomes, probe dextromethorphan (5 µM), 0 minute incubation
  IC50 at 5 min: > 25 µM
CYP2D6; human, microsomes, probe dextromethorphan (5 µM), 25 μM, 0 minute incubation
  inhibition at 5 min, 25 µM: ~40%
CYP3A4 [13]
  CYP3A4 inhibition: No significant inhibition
CYP2C8
  CYP2C8 inhibition: No significant inhibition
CYP2B6 [14]
  CYP2B6 inhibition: No significant inhibition
hERG potassium channel
  hERG inhibition activity (conclusion): weak or no significant hERG inhibition activity
[15]
  inhibition of L-DOPA induced dyskinesias: significant inhibition
[16]
  binding: no binding at all could be detected
MDR1-MDCK cells
  permeability in the MDCK assay: highly permeable
P-glycoprotein (MDR1)
  efflux ratio at 60 min, 10 µM: 1.48
CYP1A2 [17]
  CYP1A2 mRNA expression: didn't cause a statistically significant change
CYP1A2 [18]
  CYP1A2 inhibition: No significant inhibition

## O=C(NC1CCN(CCc2ccccc2)CC1)c1ccoc1 [N-(1-phenethylpiperidin-4-yl)furan-3-carboxamide]
α2B (h) [1]
  IC50: 3 µM
  Ki: 3 µM
  nH: 0.7
μ (MOP) (h) [2]
  nH: 0.8
δ2 (DOP) (h)
  nH: 1
α2B (h) [19]
  IC50: 230 µM
  Kb: 50 µM
κ (KOP)
  nH: 1.1

## O=C(NC1CCN(CCc2ccccc2)CC1)c1ccccc1 [N-(1-phenethylpiperidin-4-yl)benzamide]
α2B (h) [1]
  IC50: 4 µM
  Ki: 0.27 µM
  nH: 1.3
μ (MOP) (h) [2]
  nH: 0.9
δ2 (DOP) (h)
  nH: 0.7
α2B (h) [19]
  IC50: 350 µM
  Kb: 46 µM
κ (KOP)
  nH: 0.6

## O=C(CCCCCCCBr)NC1CCN(CCc2ccccc2)CC1 [8-bromo-N-(1-phenethylpiperidin-4-yl)octanamide]
μ (MOP) (h) [20]
  nH: 0.4
α2B (h) [1]
  IC50: 5.7 µM
  Ki: 3.8 µM
  nH: 0.8
α2B (h) [19]
  IC50: 360 µM
  Kb: 46 µM
κ (KOP)
  nH: 0.5

## CCC(=O)NC1CCN(CCc2cccs2)CC1 [N-(1-(2-(thiophen-2-yl)ethyl)piperidin-4-yl)propionamide]
μ (MOP) (h) [20]
  nH: 0.6
α2B (h) [1]
  IC50: 11 µM
  Ki: 7.6 µM
  nH: 1.2
δ2 (DOP) (h)
  nH: 0.9
α2B (h) [19]
  IC50: 440 µM
  Kb: 57 µM
κ (KOP)
  nH: 0.6

## O=C(NC1CCN(CCc2ccccc2)CC1)c1ccco1 [N-(1-phenethylpiperidin-4-yl)furan-2-carboxamide]
α2B (h) [1]
  IC50: 4.6 µM
  Ki: 3 µM
  nH: 0.7
μ (MOP) (h) [2]
  nH: 0.8
δ2 (DOP) (h)
  nH: 1
α2B (h) [19]
  IC50: 380 µM
  Kb: 50 µM
κ (KOP)
  nH: 1.1
